Measured values: patent US7632918B2, “Semi-synthetic glycopeptides with antibiotic activity” (Novartis Vaccines and Diagnostics, Inc., priority 2005, dated 2009)
Converted amounts (≈) assume the structure as drawn. Values belong to the compound of their own block, whether it stands above or below them.

Tests used:
Assay in all cases: MIC, broth microdilution in Meuller-Hinton broth (NCCLS)
533 S. epidermidis = type: cell-based, Staphylococus epidermidis; details: clinical isolate
Experimental: (§1) Antibacterial activity in vitro was investigated by broth microdilution method in Meuller-Hinton broth as recommended by NCCLS. All strains tested were clinical isolates either sensitive or resistant to natural glycopeptides. Results are reported in the tables as MIC (minimal inhibitory concentration) in μg/ml.
(§2) The glycopeptides were tested against a variety of strains, indicated below, including Staphylococus epidermidis, Staphylococus haemolyticus, glycopeptides-intermediate Staphylococus aureus (GISA), glocopeptide-sensitive Enterococcus faecalis (GSE), and glocopeptide-resistant Enterococcus faecalis (GRE). Results are shown in the table as minimum inhibitory concentration (MIC) in units of μg/ml: […]

602 S. haemolyticus = type: cell-based, Staphylococus haemolyticus; details: clinical isolate
Experimental: as §1, §2

3797 S. aureus (GISA) = type: cell-based, Staphylococus aureus; details: glycopeptides-intermediate clinical isolate
Experimental: as §1, §2

3798 S. aureus (GISA) = type: cell-based, Staphylococus aureus; details: glycopeptides-intermediate clinical isolate
Experimental: as §1, §2

568 E. faecium (GSE) = type: cell-based; details: glycopeptide-sensitive clinical isolate
Experimental: as §1, §2

569 E. faecium (GRE) = type: cell-based; details: glycopeptide-resistant clinical isolate
Experimental: as §1, §2

559 E. faecalis (GSE) = type: cell-based, Enterococcus faecalis; details: glycopeptide-sensitive clinical isolate
Experimental: as §1, §2

560 E. faecalis (GRE) = type: cell-based, Enterococcus faecalis; details: glycopeptide-resistant clinical isolate
Experimental: as §1, §2

SMILES: CNC(CC(C)C)C(=O)NC1C(=O)NC(CC(N)=O)C(=O)NC2C(=O)NC3C(=O)NC(C(=O)NC(C(=O)O)c4cc(O)cc(O)c4-c4cc3ccc4O)C(OC3CC(C)(N)C(O)C(C)O3)c3ccc(cc3)Oc3cc2cc(c3OC2OC(CO)C(O)C(O)C2OC2CC(C)(NC(=O)[C@@H](N)Cc3ccccc3)C(O)C(C)O2)Oc2ccc(cc2Cl)C1O (some centres unmarked) [Compound 230]
MIC 533 S. epidermidis (533 S. epidermidis): 4 µg/mL (≈ 2.35 µM)
MIC 602 S. haemolyticus (602 S. haemolyticus): 4 µg/mL (≈ 2.35 µM)
MIC 3797 S. aureus (GISA) (3797 S. aureus (GISA)): >32 µg/mL
MIC 3798 S. aureus (GISA) (3798 S. aureus (GISA)): >32 µg/mL
MIC 568 E. faecium (GSE) (568 E. faecium (GSE)): 2 µg/mL (≈ 1.17 µM)
MIC 569 E. faecium (GRE) (569 E. faecium (GRE)): >64 µg/mL
MIC 559 E. faecalis (GSE) (559 E. faecalis (GSE)): 2 µg/mL (≈ 1.17 µM)
MIC 560 E. faecalis (GRE) (560 E. faecalis (GRE)): >64 µg/mL

SMILES: CNC(CC(C)C)C(=O)NC1C(=O)NC(CC(N)=O)C(=O)NC2C(=O)NC3C(=O)NC(C(=O)NC(C(=O)NCc4ccc(F)cc4)c4cc(O)cc(O)c4-c4cc3ccc4O)C(O)c3ccc(c(Cl)c3)Oc3cc2cc(c3OC2OC(CO)C(O)C(O)C2OC2CC(C)(N)C(O)C(C)O2)Oc2ccc(cc2Cl)C1O (centres unmarked) [Compound 288]
MIC 533 S. epidermidis (533 S. epidermidis): 2 µg/mL (≈ 1.29 µM)
MIC 602 S. haemolyticus (602 S. haemolyticus): 1 µg/mL (≈ 0.643 µM)
MIC 3797 S. aureus (GISA) (3797 S. aureus (GISA)): 4 µg/mL (≈ 2.57 µM)
MIC 3798 S. aureus (GISA) (3798 S. aureus (GISA)): 4 µg/mL (≈ 2.57 µM)
MIC 568 E. faecium (GSE) (568 E. faecium (GSE)): 0.13 µg/mL (≈ 0.0835 µM)
MIC 569 E. faecium (GRE) (569 E. faecium (GRE)): >64 µg/mL
MIC 559 E. faecalis (GSE) (559 E. faecalis (GSE)): 0.13 µg/mL (≈ 0.0835 µM)
MIC 560 E. faecalis (GRE) (560 E. faecalis (GRE)): >64 µg/mL

SMILES: CCCCc1ccc(CNCC(=O)NC2(C)CC(OC3C(Oc4c5cc6cc4Oc4ccc(cc4Cl)C(O)C(NC(=O)C(CC(C)C)NC)C(=O)NC(CC(N)=O)C(=O)NC6C(=O)NC4C(=O)NC(C(=O)NC(C(=O)NC6C7CC8CC(C7)CC6C8)c6cc(O)cc(O)c6-c6cc4ccc6O)C(OC4CC(C)(N)C(O)C(C)O4)c4ccc(cc4)O5)OC(CO)C(O)C3O)OC(C)C2O)cc1 (centres unmarked) [Compound 263]
MIC 533 S. epidermidis (533 S. epidermidis): 8 µg/mL (≈ 4.22 µM)
MIC 602 S. haemolyticus (602 S. haemolyticus): 8 µg/mL (≈ 4.22 µM)
MIC 3797 S. aureus (GISA) (3797 S. aureus (GISA)): 16 µg/mL (≈ 8.45 µM)
MIC 3798 S. aureus (GISA) (3798 S. aureus (GISA)): 16 µg/mL (≈ 8.45 µM)
MIC 568 E. faecium (GSE) (568 E. faecium (GSE)): 8 µg/mL (≈ 4.22 µM)
MIC 569 E. faecium (GRE) (569 E. faecium (GRE)): 8 µg/mL (≈ 4.22 µM)
MIC 559 E. faecalis (GSE) (559 E. faecalis (GSE)): 8 µg/mL (≈ 4.22 µM)
MIC 560 E. faecalis (GRE) (560 E. faecalis (GRE)): 8 µg/mL (≈ 4.22 µM)

SMILES: CNC(CC(C)C)C(=O)NC1C(=O)NC(CC(N)=O)C(=O)NC2C(=O)NC3C(=O)NC(C(=O)NC(C(=O)O)c4cc(O)cc(O)c4-c4cc3ccc4O)C(OC3CC(C)(N)C(O)C(C)O3)c3ccc(cc3)Oc3cc2cc(c3OC2OC(CO)C(O)C(O)C2OC2CC(C)(NC(=O)CNCc3ccc(F)cc3)C(O)C(C)O2)Oc2ccc(cc2Cl)C1O (centres unmarked) [Compound 293]
MIC 533 S. epidermidis (533 S. epidermidis): 4 µg/mL (≈ 2.32 µM)
MIC 602 S. haemolyticus (602 S. haemolyticus): 4 µg/mL (≈ 2.32 µM)
MIC 3797 S. aureus (GISA) (3797 S. aureus (GISA)): 8 µg/mL (≈ 4.64 µM)
MIC 3798 S. aureus (GISA) (3798 S. aureus (GISA)): 8 µg/mL (≈ 4.64 µM)
MIC 568 E. faecium (GSE) (568 E. faecium (GSE)): 4 µg/mL (≈ 2.32 µM)
MIC 569 E. faecium (GRE) (569 E. faecium (GRE)): 16 µg/mL (≈ 9.29 µM)
MIC 559 E. faecalis (GSE) (559 E. faecalis (GSE)): 4 µg/mL (≈ 2.32 µM)
MIC 560 E. faecalis (GRE) (560 E. faecalis (GRE)): 16 µg/mL (≈ 9.29 µM)

MIC 533 S. epidermidis (533 S. epidermidis): 0.5 µg/mL (≈ 0.281 µM)
MIC 3797 S. aureus (GISA) (3797 S. aureus (GISA)): 2 µg/mL (≈ 1.12 µM)
MIC 3798 S. aureus (GISA) (3798 S. aureus (GISA)): 2 µg/mL (≈ 1.12 µM)
MIC 568 E. faecium (GSE) (568 E. faecium (GSE)): 1 µg/mL (≈ 0.561 µM)
MIC 569 E. faecium (GRE) (569 E. faecium (GRE)): 16 µg/mL (≈ 8.98 µM)
MIC 559 E. faecalis (GSE) (559 E. faecalis (GSE)): 1 µg/mL (≈ 0.561 µM)
MIC 560 E. faecalis (GRE) (560 E. faecalis (GRE)): 16 µg/mL (≈ 8.98 µM)
SMILES: CCCCCCCCOc1ccc(CNC(CCCN)C(=O)NC2(C)CC(OC3C(Oc4c5cc6cc4Oc4ccc(cc4Cl)C(O)C4NC(=O)C(NC(=O)C6NC(=O)C(CC(N)=O)NC(=O)C(NC(=O)C(CC(C)C)NC)C(O)c6ccc(c(Cl)c6)O5)c5ccc(O)c(c5)-c5c(O)cc(O)cc5C(C(=O)O)NC4=O)OC(CO)C(O)C3O)OC(C)C2O)cc1 (centres unmarked) [Compound 241]
MIC 602 S. haemolyticus (602 S. haemolyticus): 1 µg/mL (≈ 0.561 µM)

SMILES: CNC(CC(C)C)C(=O)NC1C(=O)NC(CC(N)=O)C(=O)NC2C(=O)NC3C(=O)NC(C(=O)NC(C(=O)O)c4cc(O)cc(O)c4-c4cc3ccc4O)C(OC3CC(C)(N)C(O)C(C)O3)c3ccc(cc3)Oc3cc2cc(c3OC2OC(CO)C(O)C(O)C2OC2CC(C)(NC(=O)CNCc3ccc4c(c3)Cc3ccccc3-4)C(O)C(C)O2)Oc2ccc(cc2Cl)C1O (centres unmarked) [Compound 292]
MIC 533 S. epidermidis (533 S. epidermidis): 4 µg/mL (≈ 2.23 µM)
MIC 602 S. haemolyticus (602 S. haemolyticus): 4 µg/mL (≈ 2.23 µM)
MIC 3797 S. aureus (GISA) (3797 S. aureus (GISA)): 8 µg/mL (≈ 4.46 µM)
MIC 3798 S. aureus (GISA) (3798 S. aureus (GISA)): 8 µg/mL (≈ 4.46 µM)
MIC 568 E. faecium (GSE) (568 E. faecium (GSE)): 2 µg/mL (≈ 1.12 µM)
MIC 569 E. faecium (GRE) (569 E. faecium (GRE)): 32 µg/mL (≈ 17.8 µM)
MIC 559 E. faecalis (GSE) (559 E. faecalis (GSE)): 2 µg/mL (≈ 1.12 µM)
MIC 560 E. faecalis (GRE) (560 E. faecalis (GRE)): 32 µg/mL (≈ 17.8 µM)

SMILES: CCCCc1ccc(CNCC(=O)NC2(C)CC(OC3C(Oc4c5cc6cc4Oc4ccc(cc4Cl)C(O)C(NC(=O)C(CC(C)C)NC)C(=O)NC(CC(N)=O)C(=O)NC6C(=O)NC4C(=O)NC(C(=O)NC(C(=O)NC(C)C67CC8CC(CC(C8)C6)C7)c6cc(O)cc(O)c6-c6cc4ccc6O)C(OC4CC(C)(N)C(O)C(C)O4)c4ccc(cc4)O5)OC(CO)C(O)C3O)OC(C)C2O)cc1 (centres unmarked) [Compound 264]
MIC 533 S. epidermidis (533 S. epidermidis): 4 µg/mL (≈ 2.08 µM)
MIC 602 S. haemolyticus (602 S. haemolyticus): 8 µg/mL (≈ 4.16 µM)
MIC 3797 S. aureus (GISA) (3797 S. aureus (GISA)): 8 µg/mL (≈ 4.16 µM)
MIC 3798 S. aureus (GISA) (3798 S. aureus (GISA)): 16 µg/mL (≈ 8.32 µM)
MIC 568 E. faecium (GSE) (568 E. faecium (GSE)): 4 µg/mL (≈ 2.08 µM)
MIC 569 E. faecium (GRE) (569 E. faecium (GRE)): 8 µg/mL (≈ 4.16 µM)
MIC 559 E. faecalis (GSE) (559 E. faecalis (GSE)): 4 µg/mL (≈ 2.08 µM)
MIC 560 E. faecalis (GRE) (560 E. faecalis (GRE)): 8 µg/mL (≈ 4.16 µM)
